In patent US8846627B2, “Method for treatment of malaria” (The Second Military Medical University, priority 2009, dated 2014):

Key:
[1] = target: T1, Falcipain-2 protease (FP-2) (Plasmodium falciparum, UniProt Q8I6U4); experiment: SPR (Biacore 3000) binding assay with immobilised FP-2 protein; details: SPR screening at 1 μM and 10 μM
T1 construct: The falcipain-2 fragment was amplified by the polymerase chain reaction (PCR); His6 (N-terminal MRGS-His6 supplied by the pQE-30 vector; own knowledge of the vector, consistent with the Ni2+-NTA purification) (N); made in house; host or cells: E. coli M15
T1 sequence (Q8I6U4 244-484): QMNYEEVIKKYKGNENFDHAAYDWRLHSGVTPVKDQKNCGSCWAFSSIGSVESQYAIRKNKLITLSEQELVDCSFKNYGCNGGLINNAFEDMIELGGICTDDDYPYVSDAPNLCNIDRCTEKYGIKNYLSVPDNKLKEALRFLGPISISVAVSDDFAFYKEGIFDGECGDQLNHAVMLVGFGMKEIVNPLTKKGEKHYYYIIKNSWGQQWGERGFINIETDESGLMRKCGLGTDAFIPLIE
Description: The screening and kinetics determination of the falcipain-2 protease and tiliroside binding activity are based on SPR mechanism, which employs Biacore 3000 (Biacore AB, Uppsala, Sweden).
(1) The Construction of Falcipain-2 Plasmid (pQE30-Fal2)
Primers were designed according to the falcipain-2 cDNA sequence, utilizing the following primers, forward 5′[…]3′(SEQ ID NO. 1) and reverse 5′[…]3′ (SEQ ID NO. 2), which including two restriction sites, BamH I and SaI I The falcipain-2 fragment was amplified by the polymerase chain reaction (PCR), and the PCR product was ligated into the pQE-30 expression vector and then further verified by sequencing. This construct was transformed into E. coil M15 (Qiagen).
(2) Expression and Purification of Falcipain-2 Protein
The engineering bacteria were obtained by transforming constructed plasmid pQE30-Fal2 into the E. coli M15 cells. They were culturing in LB medium (10 g/L tryptone, 5 g/L yeast extract, 10 g/L sedium chloride) containing ampicillin […] and kanamtcin […] for overnight. Then, transfer the bacteria into fresh LB medium (1 L) containing ampicillin and kanamycin (according to 1:100) at 37° C., 220 rpm. […] Bound protein was eluted with 8M urea, 20 mM Tris-Cl, 1M imidazole, pH 8.0, and the eluted protein was analyzed by SDS-PAGE. […]

[2] = target: T1, Falcipain-2 protease (FP-2); experiment: Falcipain-2 protease inhibition assay (fluorescence reaction rate); format: biochemical
Protocol: (1) Expression and Purification of Falcipain-2 and Refolding of FP-2 Inclusion Bodies Protein
(2) The Determination of the Invention Compounds' Inhibitory Activity Against FP-2
FP-2 protein and test compounds dissolved in DMSO (prepared from EXAMPLES 1-4) were added to 197 μL, buffer, containing 100 mM NaOAc, 10 mM DTT, pH 5.5 (final concentration 10 μg/mL). The test compound were Stenopalustroside A, Stenopalustroside D, Tiliroside, kaempferol 3-O-β-(6″-caffeoylglucoside) and kaempferol 3-(2,4-di-E-p-coumaroyl-rhamnoside), respectively, which final concentration were 10 μM and 0 μM (as negative control). These compounds were incubated for […] and employed MD SpectraMax M5 Microplate Reader to continuous detect the RFU for 15 min, at excitation 355 nm and emission 460 nm Calculate the reaction rate Km, and obtain percentage inhibitory rate of the test compound at 10 μM by the following equation,
The equation is: (Kmof control group−Kmof experimental group)/Kmof control group×100%
Select […] compounds with over 50% inhibitory rate to detect IC50, and utilize the compound solutions prepared from EXAMPLE 1 to EXAMPLE 4, Stenopalustroside A, tiliroside kaempferol 3-O-β-(6″-caffeoylglucoside), and the experimental methods and system followed as EXAMPLE 6. According to FP-2 activity reaction rate Km with compounds at different concentrations, we can calculate the inhibitory rate of compounds against FP-2 at different concentration. The IC50 value was fitted with utilizing the Sigmoidal Equation by Origin software.

SMILES: O=C(/C=C/c1ccc(O)cc1)OC[C@H]1O[C@@H](Oc2c(-c3ccc(O)cc3)oc3cc(O)cc(O)c3c2=O)[C@H](O)[C@@H](O)[C@@H]1O [Tiliroside]
- binding activity with FP-2 protein [1]: obvious binding activity
- IC50 [2]: 13.1 µM
- inhibition at 10 µM ([2]; 10 μM compound, pH 5.5): 64.4%
